The IC50 is the midpoint of a concentration-inhibition curve. Low values mean greater potency in that assay, high ones weaker potency in that assay.

The subject of assay [1] is pancreatic cancer cell AsPC-1. Briefly: Suppressing proliferation of pancreatic cancer cell AsPC-1 in vitro (MTT, number of living cells). The class given is cell-based. The conditions noted are these: Homo sapiens, ASPC1, 72 h, AsPC-1, RPMI 1640 medium, incubated 3 days with test compound. The protocol: (§1) A cell suspension of pancreatic cancer cell AsPC-1 (20000/ml) in RPMI 1640 medium (Flow Laboratories) supplemented with 10% of inactivated fetal calf serum, 1 mM of sodium pyruvate and 25 mM of HEPES [2-{4-(2-hydroxyethyl)-1-piperazinyl}ethanesulfonic acid] was added to 96-well micro-culture plates (50ul/well). The culture plates were incubated at 37°C in a 5% CO₂ incubator. On the following day, the solution of each test compound dissolved in dimethylformamide and diluted (3-fold steps) was added (50 ul/well), which was incubated for further 3 days. The culture broth containing the test compounds was eliminated, and the cells were washed, to which was added a solution of MTT pigment, and the number of living cells was calculated [Tada et al. J. Immunol. Methods, 93 p.157 (1986)]. The number of cells in the control group containing no test compound was assumed to be 100%, and the respective ratios of cell numbers in groups containing the respective test compounds were calculated to thereby determine the concentrations (IC₅₀ value) of the respective test compounds necessary to suppress the number of living cells to 50% of that of the control group.

Assay [2] has as its system pancreatic cancer cell strain PC-3. The assay can be described thus: Suppressing proliferation of PC-3 cells in vitro (MTT, number of living cells). Type of assay: cell-based. The conditions noted are these: 96 h, PC-3, F-12K medium, incubated 4 days with test compound. The protocol: as §1
For the test of pancreatic cancer cell strain PC-3, the same method in the case of AcPC-1 was employed excepting the use of F-12K medium containing 10% inactivated fetal calf serum (Flow Laboratories) and change of the incubation period after adding the test compounds to 4 days, to thereby determine the IC₅₀ value (nm).

`CC(C)(C)n1ncc(SCc2ccc(-c3ccccc3)cc2)c(Cl)c1=O` [Compound 3, 2-t-butyl-4-chloro-5-(4-phenyl)benzylthio-3(2H)pyridazinone]: the IC50 in assay [1] is less than 1.52 nM; in assay [2], 2 nM.
The corresponding values for `CC(C)(C)n1ncc(SCc2ccc3ccccc3c2)c(Cl)c1=O` [Compound 4, 2-t-butyl-4-chloro-5-(2-naphthyl)methylthio-3(2H)pyridazinone] are 15 nM and less than 1.52 nM.
In the same order, the values of `CC(C)(C)n1ncc(SCC=Cc2ccccc2)c(Cl)c1=O` [Compound 6, 2-t-butyl-4-chloro-5-{(3-phenyl)-2-propenylthio}-3(2H)pyridazinone] are 290 nM and 53 nM.
The corresponding values for `CC(C)(C)n1ncc(SCc2ccc3ccccc3n2)c(Cl)c1=O` [Compound 12, 2-t-butyl-4-chloro-5-(2-quinolyl)methylthio-3(2H)pyridazinone] are 74 nM and 42 nM.
In the case of `CC(C)(C)n1ncc(SCc2ccc(-c3ccccc3C#N)cc2)c(Cl)c1=O` [Compound 13, 2-t-butyl-4-chloro-5-{4-(2-cyanophenyl)} benzylthio-3(2H)pyridazinone], the half-maximal inhibitory concentration (IC50) in assay [1] and in assay [2] was less than 1.52 nM each time.
For the compound `CC(C)(C)n1ncc(SCc2ccc(C(F)(F)F)cc2)c(Cl)c1=O` [Compound 17, 2-t-butyl-4-chloro-5-(4-trifluoromethyl) benzylthio-3(2H)pyridazinone], the IC50 in assay [1] was determined as 59 nM; in assay [2], 56 nM.
The corresponding values for `CC(C)(C)n1ncc(OCc2ccc(-c3ccccc3)cc2)c(Cl)c1=O` [Compound 18, 2-t-butyl-4-chloro-5-(4-phenyl)benzyloxy-3(2H)pyridazinone] are less than 1.52 nM and less than 1.52 nM.
The corresponding values for `CC(C)(C)n1ncc(OCc2ccc3ccccc3c2)c(Cl)c1=O` [Compound 20, 2-t-butyl-4-chloro-5-(2-naphthyl)methyloxy-3(2H)pyridazinone] are 440 nM and 5 nM.
The corresponding values for `Cc1c(SCc2ccc(C(C)(C)C)cc2)cnn(C(C)(C)C)c1=O` [Compound 27, 2-t-butyl-5-(4-t-butyl)benzylthio-4-methyl-3(2H)pyridazinone] are 9 nM and less than 1.52 nM.
Turning to `Cc1c(OCc2ccc(C(C)(C)C)cc2)cnn(C(C)(C)C)c1=O` [Compound 31, 2-t-butyl-5-(4-t-butyl)benzyloxy-4-methyl-3(2H)pyridazinone], the IC50 worked out at 84 nM in assay [1] and 25 nM in assay [2].
In the same order, the values of `CC(C)(C)n1ncc(SCc2ccc(-c3ccccn3)cc2)c(Cl)c1=O` [Compound 39, 2-t-butyl-4-chloro-5-{4-(2-pyridyl)benzylthio}-3(2H)-pyridazinone] are less than 1.52 nM and 4 nM.
`CC(C)(C)n1ncc(OCc2ccc(-c3ccccn3)cc2)c(Cl)c1=O` [Compound 42, 2-t-butyl-4-chloro-5-{4-(2-pyridyl)benzyloxy}-3(2H)-pyridazinone]: the IC50 in assay [1] came to 5 nM; in assay [2] it was 2 nM.
The corresponding values for `CC(C)(C)n1ncc(SC(CO)c2ccccc2)c(Cl)c1=O` (centres unmarked) [Compound 48, 2-t-butyl-4-chloro-5-(2-hydroxy-1-phenyl) ethylthio-3(2H)-pyridazinone] are 67 nM and 45 nM.
In the same order, the values of `CC(C)(C)n1ncc(OCc2ccc(OCc3ccc(F)cc3)nc2)c(Cl)c1=O` [Compound 49, 2-t-butyl-4-chloro-5-[6-(4-fluorobenzyloxy)-3-pyridyl]methoxy-3(2H)-pyridazinone] are 120 nM and less than 1.52 nM.
The corresponding values for `CC(C)(C)n1ncc(SCc2ccc(OCc3ccc(F)cc3)nc2)c(Cl)c1=O` [Compound 50, 2-t-butyl-4-chloro-5-[6-(4-fluorobenzyloxy)-3-pyridyl]methylthio-3(2H)-pyridazinone] are 11 nM and less than 1.52 nM.
Consider `CC(C)(C)n1ncc(SCc2ccc(C(=O)c3ccc(Cl)cc3)cc2)c(Cl)c1=O` [Compound 72, 2-t-butyl-4-chloro-5-[4-(4-chlorobenzoyl)benzylthio]-3(2H)-pyridazinone], for which the IC50 in assay [1] and in assay [2] was less than 1.52 nM each time.
As for `CC(C)(C)n1ncc(OCc2ccc(C(=O)c3ccc(Cl)cc3)cc2)c(Cl)c1=O` [Compound 73, 2-t-butyl-4-chloro-5-[4-(4-chlorobenzoyl)benzyloxy]-3(2H)-pyridazinone], the IC50 was 8 nM in assay [1] and less than 1.52 nM in assay [2].
The corresponding values for `CC(C)(C)n1ncc(SCc2ccc(OCc3ccccc3)cc2)c(Cl)c1=O` [Compound 74, 5-(4-benzyloxybenzylthio)-2-t-butyl-4-chloro-3(2H)-pyridazinone] are 29 nM and less than 1.52 nM.
The corresponding values for `CC(C)(C)n1ncc(OCC(O)c2ccc(-c3ccccc3)cc2)c(Cl)c1=O` (centres unmarked) [Compound 82, 2-t-butyl-4-chloro-5-[2-hydroxy-2-(4-biphenyl)]ethoxy-3(2H)-pyridazinone] are 480 nM and 27 nM.
In the same order, the values of `CC(C)(C)n1ncc(OC(CO)c2ccc(-c3ccccc3)cc2)c(Cl)c1=O` (centres unmarked) [Compound 83, 2-t-butyl-4-chloro-5-[2-hydroxy-1-(43-biphenyl)]ethoxy-3(2H)-pyridazinone] are 73 nM and 2 nM.
`CC(C)(C)n1ncc(SC(CO)c2ccc(-c3ccccc3)cc2)c(Cl)c1=O` (centres unmarked) [Compound 85, 2-t-butyl-4-chloro-5-[2-hydroxy-1-(p-biphenyl)]ethylthio-3(2H)-pyridazinone]: the IC50 is 12 nM in assay [1] and less than 1.52 nM in assay [2].
The corresponding values for `CC(C)(C)OC(=O)Nc1cc(-c2ccc(CSc3cnn(C(C)(C)C)c(=O)c3Cl)cc2)ccn1` [Compound 90, 2-t-butyl-4-chloro-5-[4-[4-(2-t-butoxycarbonylamino)pyridyl]benzylthio]-3(2H)-pyridazinone] are 270 nM and 64 nM.
In the same order, the values of `CC(C)(C)OC(=O)Nc1cc(-c2ccc(COc3cnn(C(C)(C)C)c(=O)c3Cl)cc2)ccn1` [Compound 91] are 560 nM and 92 nM.
In the case of `CC(C)(C)n1ncc(SCc2ccc(-c3ccnc(N)c3)cc2)c(Cl)c1=O` [Compound 92, 5-[4-[4-(2-amino)pyridyl]benzylthio]-2-t-butyl-4-chloro-3(2H)-pyridazinone], the IC50 was 28 nM in assay [1] and less than 1.52 nM in assay [2].
In the same order, the values of `CC(C)(C)n1ncc(OCc2ccc(-c3ccnc(N)c3)cc2)c(Cl)c1=O` [Compound 93, 5-[4-[4-(2-amino)pyridyl]benzyloxy]-2-t-butyl-4-chloro-3(2H)-pyridazinone] are 770 nM and 110 nM.
In the same order, the values of `CC(C)(C)n1ncc(SCc2ccc(-c3ncccn3)cc2)c(Cl)c1=O` [Compound 96, 2-t-butyl-4-chloro-5-[4-(2-pyrimidyl)]benzylthio-3(2H)-pyridazine] are 16 nM and less than 1.52 nM.
In the same order, the values of `CC(C)(C)n1ncc(OCc2ccc(-c3ncccn3)cc2)c(Cl)c1=O` [Compound 97, 2-t-butyl-4-chloro-5-[4-(2-pyrimidyl)]benzyloxy-3(2H)-pyridazine] are 280 nM and less than 1.52 nM.
In the case of `COc1cc(OC)nc(-c2ccc(CSc3cnn(C(C)(C)C)c(=O)c3Cl)cc2)n1` [Compound 98, 2-t-butyl-4-chloro-5-[4-[2-(4,6-dimethoxy)pyrimidyl]]benzylthio-3(2H)-pyridazinone], the IC50 in assay [1] was found to be 54 nM; in assay [2] it was 6 nM.
In the same order, the values of `COc1cc(OC)nc(-c2ccc(COc3cnn(C(C)(C)C)c(=O)c3Cl)cc2)n1` [Compound 99, 2-t-butyl-4-chloro-5-[4-[2-(4,6-dimethoxy)pyrimidyl]]benzyloxy-3(2H)-pyridazinone] are 230 nM and 52 nM.
The corresponding values for `CC(C)(C)n1ncc(SCc2ccc(-c3csc(N)n3)cc2)c(Cl)c1=O` [Compound 102] are 33 nM and 2 nM.
In the same order, the values of `CC(C)(C)n1ncc(OCc2ccc(-c3csc(N)n3)cc2)c(Cl)c1=O` [Compound 103] are 250 nM and 210 nM.
As to `Cc1c(OCc2ccc(-c3ccccn3)cc2)cnn(C(C)(C)C)c1=O` [Compound 104, 2-t-butyl-4-methyl-5-[4-(2-pyridyl)]benzyloxy-3(2H)-pyridazinone], the IC50 in assay [1] is 85 nM; in assay [2], less than 1.52 nM.
The corresponding values for `CC(C)(C)n1ncc(SCc2ccc(-c3cc[nH]n3)cc2)c(Cl)c1=O` [Compound 111, 2-t-butyl-4-chloro-5-[4-(1H-pyrazol-3-yl)benzylthio]-3(2H)-pyridazinone] are 550 nM and 3 nM.
In the same order, the values of `CC(C)(C)n1ncc(SCc2ccc(-c3ccno3)cc2)c(Cl)c1=O` [Compound 113, 2-t-butyl-4-chloro-5-[4-(1,2-oxazol-5-yl)benzylthio]-3(2H)-pyridazinone] are 120 nM and less than 1.52 nM.
